Laboratory results: PMC11443494, “Dynamical responses predict a distal site that modulates activity in an antibiotic resistance enzyme” (Chemical Science, 2024)
Like-named read-outs stand apart in the source and are kept apart here.

How the values were obtained:
KPC-2 [1] = target: T1, KPC-2 (Klebsiella pneumoniae, UniProt Q9F663); format: biochemical
T1 construct: made in house
Procedure: (§1) Antibiotic hydrolysis was measured at 25 °C in kinetics buffer (10 mM HEPES, pH 7.5 and 150 mM NaCl, 100 μg per mL bovine […] albumin (BSA)). […] Hydrolysis was followed using Greiner half area 96-well plates and a BMG CLARIOstar Plus microplate reader. GraphPad Prism 9.3.1 (GraphPad Software, La Jolla, CA, USA; https://www.graphpad.com) was used to calculate kinetic parameters. Initial rates of antibiotic hydrolysis measured across a range of antibiotic concentrations were used to calculate steady-state parameters according to the Michaelis–Menten equation.

KPC-2^G89D [2] = target: T2, KPC-2^G89D (Klebsiella pneumoniae, UniProt Q9F663, G88D); test: Steady-state kinetics of β-lactam hydrolysis by KPC-2^G89D; format: biochemical; conditions: for decrease in catalytic efficiency (kcat/KM): KPC-2^G89D compared to wild-type KPC-2; for Kcat / K M: KPC-2^G89D, 25 °C, standard error in parentheses; for Kcat: 10 mM HEPES pH 7.5, 150 mM NaCl, BSA; for K M: pH 7.5
T2 construct: made in house; host or cells: E. coli
T2 sequence (Q9F663 25-293 G88D): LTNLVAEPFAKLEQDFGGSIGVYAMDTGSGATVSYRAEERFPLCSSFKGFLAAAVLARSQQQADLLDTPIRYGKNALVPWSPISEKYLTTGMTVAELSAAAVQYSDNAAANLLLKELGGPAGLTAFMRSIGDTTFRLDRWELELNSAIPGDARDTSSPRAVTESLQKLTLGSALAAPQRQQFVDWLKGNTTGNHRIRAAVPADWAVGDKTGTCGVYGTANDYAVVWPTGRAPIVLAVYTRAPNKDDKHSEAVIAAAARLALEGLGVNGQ
Procedure: as §1

SHV-38 = system: SHV-38; set-up: method as in Poirel et al [3]; conditions: ref Poirel et al [3]; cited from earlier work
SHV-1 = system: SHV-1; set-up: method as in Liakopoulos et al. [2]; conditions: ND = no detected hydrolysis, ref Liakopoulos et al. [2]; cited from earlier work
SHV-2 = system: SHV-2; set-up: method as in Liakopoulos et al. [2]; conditions: ref Liakopoulos et al. [2], cited from earlier work
KPC-2^G89D [3] = target: T2, KPC-2^G89D; test: Inhibition of nitrocefin hydrolysis (IC50), KPC-2^G89D; format: biochemical; conditions: nitrocefin 200 μM, 10 minute pre-incubation of enzyme and inhibitor
KPC-2 [4] = target: T1, KPC-2; test: Inhibition of nitrocefin hydrolysis (IC50), KPC-2; format: biochemical; conditions: wild-type KPC-2; nitrocefin 200 μM, 10 minute pre-incubation
Procedure: Both inhibitors were dissolved in kinetics buffer.

KPC-2 [5] = target: T1, KPC-2; test: Pre-steady-state (stopped-flow tryptophan fluorescence) binding kinetics, KPC-2
Procedure: (§2) Pre-steady state kinetics were measured by mixing meropenem with KPC-2 or KPC-2^G89D (both 10 nM concentration) in an Applied Photophysics SX20 stopped-flow spectrometer connected to a photodiode array detector in kinetics buffer. Data were fitted from 0.005 to 0.3 s for both 5 repeats of each of KPC-2 : meropenem and KPC-2^G89D : meropenem. k1 and k−1 were calculated from the gradient and the y-intercept of the kobsvs. substrate concentration curves. KD is calculated using the following equation: [drawing 1]
(§3) Figure S11: Binding kinetics of meropenem calculated using pre-steady state kinetics. a) Kinetic model for binding and hydrolysis of β-lactam substrates by serine β-lactamases. KD is calculated by k-1 / k1. Normalised tryptophan fluorescence curves, averaged over 5 transients, measured from 0.005 s to 0.25 s, for meropenem binding to KPC-2 (b) and KPC-2G89D (both at 10 nM) (c) were used to calculate kobs over a range of concentrations using one phase decay curve fitting. kobs was plotted for KPC-2 (d) and KPC-2G89D (e), and a linear regression used to calculate the y-intercept (k-1) and the slope (k 1). The calculated KD values are 3.7 μM and 5.9 μM for KPC-2 and KPC-2G89D. […]

KPC-2^G89D [6] = target: T2, KPC-2^G89D; test: Pre-steady-state (stopped-flow tryptophan fluorescence) binding kinetics, KPC-2^G89D
Procedure: as §2, §3

[7] = KPC-2, 25 °C, 10 mM HEPES pH 7.5, 150 mM NaCl, BSA, standard error in parentheses
[8] = KPC-2, 25 °C, pH 7.5, standard error in parentheses

T1 sequence (Q9F663 25-293 limits assumed): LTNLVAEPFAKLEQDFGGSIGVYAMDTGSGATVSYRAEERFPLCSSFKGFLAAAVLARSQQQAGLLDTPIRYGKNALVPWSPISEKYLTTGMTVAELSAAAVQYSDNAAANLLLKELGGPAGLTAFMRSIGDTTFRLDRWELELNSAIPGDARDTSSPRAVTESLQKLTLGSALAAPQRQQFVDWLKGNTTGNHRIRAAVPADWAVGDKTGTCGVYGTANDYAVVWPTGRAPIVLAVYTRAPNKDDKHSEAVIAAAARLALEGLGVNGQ

Row | SMILES | Kcat (KPC-2^G89D [2]) | K M (KPC-2^G89D [2]) | Kcat (SHV-38) | Km (SHV-38) | Km (SHV-2; ND = no detected hydrolysis) | Vmax (SHV-2) | also measured
1 | C[C@@H](O)[C@H]1C(=O)N2C(C(=O)O)=C(SCCN=CN)C[C@H]12 [Imipenem] | 2.8 (0.12) s^−1 | 68.9 (10.2) μM | 0.01 s⁻¹ | 24 µM | – | – | Kcat (KPC-2 [1]; [7]): 22 (0.43) s^−1; K M (KPC-2 [1]; [8]): 72 (3.2) μM; decrease in catalytic efficiency (kcat/KM) (KPC-2^G89D [2]): 10 fold
2 | CC1(C)S[C@@H]2[C@H](NC(=O)Cc3ccccc3)C(=O)N2[C@H]1C(=O)O [Benzylpenicillin] | – | – | 100 s⁻¹ | 13 µM | 3.8 µM | 100 µM/min | Kcat (SHV-1): 455 s⁻¹; Km (SHV-1): 20 µM
3 | O=C(NNC(=O)[C@@H]1CC[C@@H]2CN1C(=O)N2OS(=O)(=O)O)[C@@H]1CCCNC1 [Zidebactam] | – | – | – | – | – | – | IC50 (KPC-2^G89D [3]): 0.7 nM; IC50 (KPC-2 [4]): 0.06 nM
4 | CC1(C)S[C@@H]2[C@H](NC(=O)[C@H](N)c3ccccc3)C(=O)N2[C@H]1C(=O)O [Ampicillin] | 160 (5.83) s^−1 | 201 (36.3) μM | – | – | – | – | K M (KPC-2 [1]; pH 7.5): 271 (44.7) μM; Kcat (KPC-2 [1]; pH 7.5): 82.3 (3.92) s^−1
5 | CO/N=C(\C(=O)N[C@@H]1C(=O)N2C(C(=O)O)=C(COC(C)=O)CS[C@H]12)c1csc(N)n1 [Cefotaxime] | – | – | 1 s⁻¹ | 800 µM | 18 µM | 70 µM/min | Kcat (SHV-2; ND = no detected hydrolysis): 11 s⁻¹
6 | C[C@@H](O)[C@H]1C(=O)N2C(C(=O)O)=C(S[C@@H]3CN[C@H](C(=O)N(C)C)C3)[C@H](C)[C@H]12 [Meropenem] | 0.2 (1 × 10^−2) s^−1 | 7.9 (1.57) μM | – | – | – | – | Kcat (KPC-2 [1]; [7]): 21.5 (0.12) s^−1; K M (KPC-2 [1]; [8]): 7.1 (1.01) μM; decrease in catalytic efficiency (kcat/KM) (KPC-2^G89D [2]): 100 fold; Kd (KPC-2 [5]): 3700 nM; Kd (KPC-2^G89D [6]): 5900 nM
7 | CC(=O)OCC1=C(C(=O)O)N2C(=O)[C@@H](NC(=O)Cc3cccs3)[C@H]2SC1 [Cephalothin] | – | – | 5 s⁻¹ | 100 µM | – | – | Kcat (SHV-1): 10 s⁻¹; Km (SHV-1): 26 µM
8 | CC(C)(O/N=C(\C(=O)N[C@@H]1C(=O)N2C(C(=O)[O-])=C(C[n+]3ccccc3)CS[C@H]12)c1csc(N)n1)C(=O)O [Ceftazidime] | – | – | 110 s⁻¹ | 3800 µM | 24 µM | 6.5 µM/min | –
